Laboratory results reported in patent US20100173918A1, “METHODS AND COMPOSITIONS FOR DETERMINING THE EFFICACY OF BREAST CANCER THERAPEUTICS” (TARGETED MOLECULAR DIAGNOSTICS, LLC, priority 2007, published 2010).
Values joined by “and” are separate entries in the source; they are usually repeats but may differ in a detail not shown here. Equal entries are not always repeated.

How the values were obtained:
[1] = tested on: patients with IBC (inflammatory breast cancer); test: EGF103009 open-label study of lapatinib monotherapy: clinical response (skin criteria / RECIST) and progression-free survival; format: in vivo, human; set-up: key to RECIST Response: CR: complete response; PR: partial response; SD: stable disease; settings: for RECIST Response / Skin Response: individual patient, lapatinib 1,500 mg once daily
Text: Patients: Eligible adults (18 years of age) had histologically confirmed IBC (Inflammatory breast cancer) and a clinical diagnosis of IBC (e.g., presence of diffuse erythema and edema [peau d'orange], with or without an underlying palpable mass, involving the majority of the skin of the breast). Pathologic evidence of dermal lymphatic invasion was not required. […] EGF103009 was approved by the institutional review board from each participating institution, and written informed consent was obtained from all patients.
Tumor biomarkers were analyzed in a blinded manner at a central Clinical Laboratory Improvement Amendments—certified College of American Pathology reference laboratory (Targeted Molecular Diagnostics, Westmont, Ill.) (Spector N. L., et al., J Clin Oncol 23:2502-2512 (2005)). […] The study design consisted of two stages; two responses were required in the first fifteen patients in either cohort before an additional fifteen patients were enrolled in that cohort (Green-Dahlberg design).
Patients underwent regular physical examinations and evaluations of performance status, body weight, CBC, serum chemistry, left ventricular ejection fraction by multiple gated acquisition scan or echocardiogram, and if applicable, digital photography to evaluate changes in chest wall/[…] disease or assessment by imaging studies, computed tomography scan or magnetic resonance imaging.
Efficacy and Safety Evaluation: Clinical response was assessed at 4-week intervals and imaging performed at 8-week intervals until disease progression or withdrawal from study. […] Toxicity was graded according to the National Cancer Institute Common Terminology Criteria (NC1-CTCAE), version 3.0.
Statistical Analysis: The statistical focus of the study was to test the null hypothesis that the overall response rate (ORR) is no more than 15% versus the alternative hypothesis that this rate is at least 40%. Each cohort consisted of two stages, such that if there were fewer than two responses at the end of stage 1 (15 patients), then the cohort would be closed in favor of the null hypothesis. […] Kaplan-Meier estimates of progression-free survival ([…]) were computed separately for cohort A and B. For this exploratory analysis, there were no statistical comparisons made between cohorts.

[2] = EGF103009 study of lapatinib monotherapy: safety / adverse events; format: in vivo, human
[3] = Cohort A (HER-2 overexpressing IBC)
[4] = Cohort B (EGFR expression without HER-2 overexpression)
[5] = N = 45, >20% decrease in LVEF, asymptomatic and/or below lower limit of normal
[6] = N = 45, mostly musculoskeletal pain (76% of cases)
[7] = N = 45, one report of rash was not graded

In the case of `CS(=O)(=O)CCNCc1ccc(-c2ccc3ncnc(Nc4ccc(OCc5cccc(F)c5)c(Cl)c4)c3c2)o1` [lapatinib, Lapatinib ditosylate], the “time by which all responses in the skin occurred (first assessment)” value ([1]; cohort A) was ≤ 4 week, the “patients with response to lapatinib among those who received prior trastuzumab therapy” value ([1]; cohort A, 15 patients with prior trastuzumab) was “six” and the “patients who experienced response” value ([1]; cohort A, HER-2+ IBC, n = 30) was 15 of 30. The “patients whose best clinical response was a CR in chest wall/skin or RECIST-measurable lesions” value ([1]; cohort A, n = 30) was 7%, the “patients with a PR in chest wall/skin and/or RECIST-measurable lesions as best response” value ([1]; cohort A, n = 30) was 43% and the patients who responded ([1]; cohort A, tumors coexpressing pHER-2 and pHER-3) was “nine of 10”. The patients who responded ([1]; cohort A, tumors not coexpressing pHER-2 and pHER-3) was “four of 14”, the “median PFS” value ([1]; cohort A, median follow-up 15.3 weeks) was 14 weeks and the “patients with a clinical response (PR in skin/chest disease)” value ([1]; cohort B, n = 15) was “one of 15”. For the same compound, the “median PFS” value ([1]; cohort B, median follow-up 4.1 weeks) was 4 weeks, the “RECIST Response” value [1, 3] was “PR* (4×) and PR (3×) and SD (7×)” and the “Skin Response” value [1, 3] was “PR (more than 50% decrease in extent of skin disease from baseline documented by digital photography)”. For the same compound, the “RECIST Response” value [1, 4] was “SD”, the “Skin Response” value [1, 4] was “PR (more than 50% decrease in extent of skin disease from baseline documented by digital photography)” and the “Anemia, Grade > 3 %” value ([2]; N = 45) was 4%. For the same compound, the “Anemia, Grade > 3 No.” value ([2]; N = 45) was 2, the “Anemia, Total %” value ([2]; N = 45) was 7% and the “Anemia, Total No. of Patients” value ([2]; N = 45) was 3. For the same compound, the “Anorexia, Grade > 3 %” value ([2]; N = 45) was 2%, the “Anorexia, Grade > 3 No.” value ([2]; N = 45) was 1 and the “Anorexia, Total %” value ([2]; N = 45) was 22%. The “Anorexia, Total No. of Patients” value ([2]; N = 45) was 10, the “Constipation, Grade > 3 %” value ([2]; N = 45) was 0% and the “Constipation, Grade > 3 No.” value ([2]; N = 45) was 0. The “Constipation, Total %” value ([2]; N = 45) was 7%, the “Constipation, Total No. of Patients” value ([2]; N = 45) was 3 and the “Decreased LVEF, Grade > 3 %” value ([2]; N = 45) was 0%. The “Decreased LVEF, Grade > 3 No.” value ([2]; N = 45) was 0, the “Diarrhea, Grade > 3 %” value ([2]; N = 45) was 11% and the “Diarrhea, Grade > 3 No.” value ([2]; N = 45) was 5. For the same compound, the “Diarrhea, Total %” value ([2]; N = 45) was 60%, the “Diarrhea, Total No. of Patients” value ([2]; N = 45) was 27 and the “Dyspnea, Grade > 3 %” value ([2]; N = 45) was 11%. The “Dyspnea, Grade > 3 No.” value ([2]; N = 45) was 5, the “Dyspnea, Total %” value ([2]; N = 45) was 20% and the “Dyspnea, Total No. of Patients” value ([2]; N = 45) was 9. For the same compound, the “Edema, Grade > 3 %” value ([2]; N = 45) was 2%, the “Edema, Grade > 3 No.” value ([2]; N = 45) was 1 and the “Edema, Total %” value ([2]; N = 45) was 13%. For the same compound, the “Edema, Total No. of Patients” value ([2]; N = 45) was 6, the “Elevated ALT/AST, Grade > 3 %” value ([2]; N = 45) was 4% and the “Elevated ALT/AST, Grade > 3 No.” value ([2]; N = 45) was 2. For the same compound, the “Elevated ALT/AST, Total %” value ([2]; N = 45) was 7%, the “Elevated ALT/AST, Total No. of Patients” value ([2]; N = 45) was 3 and the “Elevated alkaline phosphatase, Grade > 3 %” value ([2]; N = 45) was 0%. For the same compound, the “Elevated alkaline phosphatase, Grade > 3 No.” value ([2]; N = 45) was 0, the “Elevated alkaline phosphatase, Total %” value ([2]; N = 45) was 9% and the “Elevated alkaline phosphatase, Total No. of Patients” value ([2]; N = 45) was 4. The “Fatigue, Grade > 3 %” value ([2]; N = 45) was 0%, the “Fatigue, Grade > 3 No.” value ([2]; N = 45) was 0 and the “Fatigue, Total %” value ([2]; N = 45) was 24%. For the same compound, the “Fatigue, Total No. of Patients” value ([2]; N = 45) was 11, the “Hyperbilirubinemia, Grade > 3 %” value ([2]; N = 45) was 2% and the “Hyperbilirubinemia, Grade > 3 No.” value ([2]; N = 45) was 1. For the same compound, the “Hyperbilirubinemia, Total %” value ([2]; N = 45) was 9%, the “Hyperbilirubinemia, Total No. of Patients” value ([2]; N = 45) was 4 and the “Infection, Grade > 3 %” value ([2]; N = 45) was 4%. For the same compound, the “Infection, Grade > 3 No.” value ([2]; N = 45) was 2, the “Infection, Total %” value ([2]; N = 45) was 13% and the “Infection, Total No. of Patients” value ([2]; N = 45) was 6. The “Nausea, Grade > 3 %” value ([2]; N = 45) was 0%, the “Nausea, Grade > 3 No.” value ([2]; N = 45) was 0 and the “Nausea, Total %” value ([2]; N = 45) was 24%. The “Nausea, Total No. of Patients” value ([2]; N = 45) was 11, the “Pain, Grade > 3 %” value ([2]; N = 45) was 16% and the “Pain, Grade > 3 No.” value ([2]; N = 45) was 7. The “Pleural effusion, Grade > 3 %” value ([2]; N = 45) was 9%, the “Pleural effusion, Grade > 3 No.” value ([2]; N = 45) was 4 and the “Pleural effusion, Total %” value ([2]; N = 45) was 11%. For the same compound, the “Pleural effusion, Total No. of Patients” value ([2]; N = 45) was 5, the “Pruritus, Grade > 3 %” value ([2]; N = 45) was 0% and the “Pruritus, Grade > 3 No.” value ([2]; N = 45) was 0. The “Pruritus, Total %” value ([2]; N = 45) was 11%, the “Pruritus, Total No. of Patients” value ([2]; N = 45) was 5 and the “Rash, Grade > 3 %” value ([2]; N = 45) was 0%. For the same compound, the “Rash, Grade > 3 No.” value ([2]; N = 45) was 0, the “Vomiting, Grade > 3 %” value ([2]; N = 45) was 0% and the “Vomiting, Grade > 3 No.” value ([2]; N = 45) was 0. For the same compound, the “Vomiting, Total %” value ([2]; N = 45) was 20%, the “Vomiting, Total No. of Patients” value ([2]; N = 45) was 9 and the “grade ½ diarrhea” value ([2]; N = 45) was 49%. The “grade ½ musculoskeletal pain” value ([2]; N = 45) was 42%, the “grade ½ skin rash” value ([2]; N = 45) was 36% and the “Decreased LVEF, Total %” value [2, 5] was 7%. The “Decreased LVEF, Total No. of Patients” value [2, 5] was 3, the “Pain, Total %” value [2, 6] was 58% and the “Pain, Total No. of Patients” value [2, 6] was 26. The “Rash, Total %” value [2, 7] was 36%, the “Rash, Total No. of Patients” value [2, 7] was 16 and the “tolerability of lapatinib monotherapy” value ([2]; both cohorts) was “generally well tolerated”.
